Reference: patent US20140088144A1, “INHIBITING MICROBIAL INFECTIONS” (THE UNIVERSITY OF KANSAS, priority 2012, published 2014)

How the values were obtained:
[1] = tested on: E. coli strains used for in vivo assays; assay: E. coli growth curves; assay type: cell-based; settings: for impact on growth of the cells: minimal medium
Description: Strains SME3634 and SME3359 were grown overnight (˜16 hr) at 37° C. in MOPS-buffered minimal medium. Overnight grown cultures were diluted into the same medium plus rhamnose to an O.D600 of 0.1, and IPTG was added. 1 mL aliquots of the cultures were added to wells of a 24-well plate, with the addition of either 44 μM Compound 1 (dissolved in 100% DMSO) or an equal volume of 100% DMSO. Growth was monitored at 20 min intervals for approximately 8 hr. at 37° C. with continuous shaking in a PowerWave XS plate reader (BioTek Instruments, Inc., Winooski, Vt.). Error bars represent the standard error of the mean.
To test the impact of SE-1 on growth of the bacterial strains used for in vivo dose-response assays (SME4382 and SME3359), we compared growth rates in the presence and absence of SE-1, without addition of rhamnose. Briefly, the cells were grown at 37° C. with shaking in MOPS-buffered minimal medium with glycerol and plus 6.5 mM IPTG, in 24-well plates, with or without: SE-1 (44 uM SE-1, 0.3% DMSO), or DMSO (0.3%) in a PowerWave XS plate reader equipped with KC^4 data analysis software (BioTek Instruments).

MBP-VirF = biological target: T1, MBP-VirF (Shigella flexneri, UniProt P0A2T1); assay: Fluorescence-based thermal shift assay (Sypro Orange), VirF; assay type: binding
T1 construct: made in house; host or cells: E. coli KS 1000, plasmid pMALvirF
T1 sequence (P0A2T1 whole entry): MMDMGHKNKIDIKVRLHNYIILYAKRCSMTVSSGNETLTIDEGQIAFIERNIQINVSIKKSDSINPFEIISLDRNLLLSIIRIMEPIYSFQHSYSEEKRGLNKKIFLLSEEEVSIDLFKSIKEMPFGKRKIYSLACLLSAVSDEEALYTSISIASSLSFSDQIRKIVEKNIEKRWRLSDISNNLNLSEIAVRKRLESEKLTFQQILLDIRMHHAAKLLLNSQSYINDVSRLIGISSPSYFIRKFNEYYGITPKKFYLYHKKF
Description: Binding of SE-1 to purified VirF was tested by comparing the VirF melting temperature (Tm) in the absence and presence of SE-1 using a thermal shift assay with the fluorescent dye Sypro Orange (Molecular Probes). This method is also known as differential scanning fluorimetry or DSF. As a control, we tested binding of SE-1 to the purified, unrelated, MBP-NS1-NTD protein (greater than 95% pure). […] The reactions were carried out in 0.1 ml PCR low profile 8-tube strips with optically clear flat caps (USA Scientific) in a StepOnePlus™ Real-Time PCR System (Applied Biosystems), heating from 25 to 99° C. in increments of 0.8° C. The data was analyzed using the Boltzmann sigmoidal model in the software Prism (GraphPad). Data points before and after the fluorescence intensity minimum and maximum, respectively, were excluded from fitting. The ΔTm values are the average of three independent experiments with two replicates in each experiment. A single, representative, experiment is shown.

icsA = assay: Shigella gene expression qRT-PCR, icsA; assay type: cell-based, S. flexneri; settings: for Average ΔΔCt / Ct / RQ (2^−ΔΔCt) / ΔΔCt^1 (normalized to gapA) / ΔΔCt^2 (normalized to rrsA): icsA, example data
Description: Real-time quantitative reverse transcription PCR (qRT-PCR) was performed to test the effects of SE-1 on the expression of the VirF regulated genes virB, icsA, icsB and ipaB. The gapA and rrsA transcripts were used as internal controls. These are constitutively expressed Shigella genes commonly used to normalize mRNA levels. S. flexneri strain SME4331, which carries a null mutation in ipgD (ipgD), was grown at 30° C. overnight in TSB with ampicillin, diluted into the same medium to an OD600 of ˜0.1, and 1 ml aliquots further grown at 30° C. (DMSO only) or at 37° C. (SE-1 at 20 or 40 μM, or DMSO only, all 0.3% DMSO). Cells were grown to an OD600 of 1.0 (˜2.5 h) and RNA was isolated using an RNeasy MiniElute Cleanup Kit (Qiagen, Germantown, Md.), with DNA contamination eliminated using a Turbo DNase Kit (Ambion, Austin, Tex.). Complementary DNA (cDNA) was synthesized by random priming using a cDNA Reverse Transcription Kit (Applied Biosystems, Foster City, Calif.). Primers were tested for PCR specificity using genomic DNA template to ensure a single amplicon of the expected size for each primer pair, and validated using 5-fold dilutions of cDNA (2000 to 0.0256 ng) to ensure a linear plot of cycle threshold (Ct) versus cDNA concentration. Validated primer sets were used to test mRNA profiles in reactions that contained 10 ng of cDNA, 10 μl of SYBR green master mix (Applied Biosystems), specific primers (0.5 μM each) and water to a final volume of 20 μl, using a Step One Plus Real-Time PCR System (Applied Biosystems). The data was analyzed using the 2^−ΔΔCt method, and also by Applied Biosystems real-time analysis software. […] In brief, ΔΔCt values [ΔΔCt=(Ct,Target−Ct,Internal Control)SE-1−(Ct,Target−Ct,Internal Control)no SE-1] were separately obtained for each sample relative to two internal controls, gapA and rrsA. The ΔΔCt values relative to the two internal controls for each sample were averaged and then used to calculate the relative expression levels (2^−ΔΔCt). As a control, we also normalized each internal control to the other internal control. Control reactions used templates generated without reverse transcriptase to ensure low genomic DNA contamination. To ensure that products were not likely to be due to primer dimer artifacts, additional control samples were performed in which reaction mixtures contained primers alone (no template).

Rns = Rns (Escherichia coli, UniProt P16114); assay: In vivo activation by Rns (promoter-lacZ fusion); assay type: cell-based, Enterotoxigenic E. coli; settings: compared with full-length RhaS
Chain of Rns (P16114 whole entry, the tested form may be a part): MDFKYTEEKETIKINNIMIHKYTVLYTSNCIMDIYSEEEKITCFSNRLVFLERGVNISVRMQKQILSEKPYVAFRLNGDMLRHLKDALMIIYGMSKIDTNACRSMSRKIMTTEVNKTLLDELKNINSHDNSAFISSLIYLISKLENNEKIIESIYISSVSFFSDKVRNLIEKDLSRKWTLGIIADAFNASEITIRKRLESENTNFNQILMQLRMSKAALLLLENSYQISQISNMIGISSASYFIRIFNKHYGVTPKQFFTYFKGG
Excerpt: Expression of promoter-lacZ fusions regulated by the indicated activators, or the control Lad regulated fusion at the indicated concentrations of Compound 1. Average of three independent experiments, with two replicates in each experiment.
The compounds of the invention can be used for inhibition of virulence in vivo and in vitro activation by Rns and VirF.

RhaS = RhaS (Escherichia coli, UniProt P09377); assay: % Inhibition at 82.5 μM, RhaS; assay type: cell-based, E. coli
Chain of RhaS (P09377 whole entry): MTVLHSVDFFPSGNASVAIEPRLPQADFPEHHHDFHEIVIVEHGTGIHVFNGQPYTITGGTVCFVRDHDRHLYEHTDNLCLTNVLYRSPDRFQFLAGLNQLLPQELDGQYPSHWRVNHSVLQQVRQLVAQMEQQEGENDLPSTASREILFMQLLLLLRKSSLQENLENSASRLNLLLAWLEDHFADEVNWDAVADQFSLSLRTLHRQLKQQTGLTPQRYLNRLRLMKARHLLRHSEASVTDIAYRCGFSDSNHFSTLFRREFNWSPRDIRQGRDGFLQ

VirF = VirF (Shigella flexneri, UniProt P0A2T1); assay: % Inhibition at 82.5 μM, VirF; assay type: cell-based; settings: 82.5 μM
Chain of VirF (P0A2T1 whole entry): as the sequence (P0A2T1 whole entry) above

For `CCCCN1C=C(c2ccc3ccccc3n2)C(C[N+](=O)[O-])c2ccccc21` (centres unmarked) [Compound 1, 1-butyl-4-(nitromethyl)-3-quinolin-2-yl-4H-quinoline], the “effect on growth of either strain” value ([1]; 44 uM, SME4382 and SME3359, 8 h at 37° C.) was “no detectable effect”, the “impact on growth of the cells” value ([1]; 44 μM, strains with RhaS-activated and LacI-repressed fusions (SME3634, SME3359)) was “no impact” and the “impact on growth of the cells” value ([1]; strains with VirF/Rns-activated and LacI-repressed reporter fusions) was “no impact”. For the same molecule, the “ΔTm for VirF” value (MBP-VirF; 40 μM SE-1) was 0.15 °C, the “increase of Tm of VirF (ΔTm)” value (MBP-VirF; 80 μM SE-1, 1 μM VirF) was 0.61 °C and the “icsA expression level” value (icsA; 20 μM inhibitor, 37° C.) was “essentially unchanged”. The “icsA expression level” value (icsA; 40 μM inhibitor, P<0.05) was “significantly reduced”, the “Average ΔΔCt” value (icsA; SE-1 20 μM) was 0.04 and the Ct (icsA; SE-1 20 μM) was 27.88. The “RQ (2^−ΔΔCt)” value (icsA; SE-1 20 μM) was 0.97, the “ΔΔCt^1 (normalized to gapA)” value (icsA; SE-1 20 μM) was −0.46 and the “ΔΔCt^2 (normalized to rrsA)” value (icsA; SE-1 20 μM) was 0.54. For the same molecule, the “Average ΔΔCt” value (icsA; SE-1 40 μM) was 1.17, the Ct (icsA; SE-1 40 μM) was 28.59 and the “RQ (2^−ΔΔCt)” value (icsA; SE-1 40 μM) was 0.44. For the same molecule, the “ΔΔCt^1 (normalized to gapA)” value (icsA; SE-1 40 μM) was 0.82, the “ΔΔCt^2 (normalized to rrsA)” value (icsA; SE-1 40 μM) was 1.52 and the “inhibition of in vivo activation by Rns” value (Rns) was “similar, if not greater, extent than full-length RhaS”. For the same molecule, the “% Inhibition at 82.5 μM RhaS” value (RhaS) was 90% and the “% Inhibition at 82.5 μM VirF” value (VirF) was 100%.
